In patent publication US9221815B2, “Solid state form of vemurafenib choline salt” (ratiopharm GmbH, priority 2012, dated 2015):
Where two headings read alike, the source gives them in different places.

What was measured:
[1] = amorphous form; cited from earlier work
[2] = in accordance with WO 2010/114928 and WO 2010/129570; cited from earlier work

Which “Period stable upon storage” value (45° C. and 75% relative humidity (RH)) does the source give for `CCCS(=O)(=O)Nc1ccc(F)c(C(=O)c2c[nH]c3ncc(-c4ccc(Cl)cc4)cc23)c1F.C[N+](C)(C)CCO` [Vemurafenib Choline crystalline C1] here?
Its value is “at least 2 weeks”.

And the “Period stable upon storage” value (ambient conditions (room temperature and atmospheric humidity))?
The value was “at least 7 months”.

Which “Stability (in words)” value [1] does the source give for `CCCS(=O)(=O)Nc1ccc(F)c(C(=O)c2c[nH]c3ncc(-c4ccc(Cl)cc4)cc23)c1F` [Amorphous Vemurafenib] here?
The value was “not stable”.

Which “Solubility (in words)” value [2] does the source give for `CCCS(=O)(=O)Nc1ccc(F)c(C(=O)c2c[nH]c3ncc(-c4ccc(Cl)cc4)cc23)c1F` [Vemurafenib, propane-1-sulfonic acid {3-[5-(4-chlorophenyl)-1H-pyrrolo[2,3-b]pyridine-3-carbonyl]-2,4-difluoro-phenyl}-amide] here?
The value was “extremely low solubility”.
